Each block holds one molecule with its values, some of them ahead of it.
SMILES: FC(F)(F)N=C1SC(=Nc2ccccc2)N(c2ccccc2)C1=NC(F)(F)F
melting point: 118 °C

SMILES: O=C(O)Cc1ccc(CBr)cc1
melting point: 179 °C

SMILES: C1#CCOCc2ccccc2COCC#CCOCc2ccccc2COC1
melting point: 130 °C

SMILES: Cc1ccc2cc(Cl)c(Cl)cc2n1
melting point: 121 to 123 °C

SMILES: Clc1cc(C(Cl)Cl)c(Cl)cc1C(Cl)Cl
melting point: 72 °C

SMILES: Cc1nc(-c2ccc(C=O)s2)cs1
melting point: 127 to 128 °C

SMILES: O=c1[nH]c(=O)n(C2CCC(CO)O2)cc1Br (stereo unspecified)
melting point: 180 °C

SMILES: O=C1NC2CCCC12 (stereo unspecified)
melting point: 45 to 50 °C

SMILES: CCOC(=O)c1cc2c(=O)oc3ccccc3c2n(Cc2ccccc2)c1=O
melting point: 212 °C

SMILES: NC(=O)c1ccccc1OCC(=O)O
melting point: 221 °C

SMILES: N#C/C(=N/Nc1cccc(C(F)(F)F)c1)C(=O)c1cccs1
melting point: 173 °C

SMILES: NC(=O)NC(CC(=O)O)C(=O)O (racemic)
melting point: 174 to 175 °C

SMILES: CCCCCCCCCF
melting point: 1 °C

SMILES: O=Cc1cccc(-c2ccncc2)c1
melting point: 48 °C

SMILES: Cc1cc([N+](=O)[O-])ccc1F
melting point: 39 °C

SMILES: COc1ccc(C(=O)OC2Cc3ccccc32)cc1 (stereo unspecified)
melting point: 124 °C

SMILES: NC(=O)/C(=N\Nc1cccnc1)c1nc2ccccc2s1
melting point: 238 °C

SMILES: Clc1cc(Cl)cc(Br)c1
melting point: 83 °C

SMILES: NCc1ccc(-c2ccsc2)cc1
melting point: 116 to 117 °C

SMILES: COc1c(Br)ccc2c1C(=O)C2
melting point: 118 °C

SMILES: COc1cc2c(cc1OC)OC(C)(C)C=C2
melting point: 46 °C

SMILES: C=CC/C=C/C
melting point: -139 °C

SMILES: CCn1cc(C(=O)O)c(=O)c2cc(F)c(N3CCNCC3)nc21
melting point: 222 °C

SMILES: CCCC(C)C(O)CC (stereo unspecified)
melting point: -123 °C

SMILES: NC(Cc1cccc2ccccc12)=NO
melting point: 127 to 129 °C

SMILES: O=C(NNC(=S)NCc1ccccc1)C(=O)c1c[nH]c2ccccc12
melting point: 243 °C

SMILES: ClC(Cl)c1ccc(C(Cl)Cl)cc1
melting point: 92 to 93 °C

SMILES: O=[N+]([O-])c1cncn1CCN1CCOCC1
melting point: 110 °C

SMILES: Cc1ccc(N(SC(F)(Cl)Cl)S(=O)(=O)N(C)C)cc1
melting point: 96 °C

SMILES: COc1ccc(/C=c2\sc3nc4ccccc4n3c2=O)cc1OC
melting point: 220 to 222 °C

SMILES: Cc1ccc(C(C)CC(=O)C=Cc2ccccc2)cc1 (stereo unspecified)
melting point: 88 °C

SMILES: NS(=O)(=O)c1cc(Cl)c(Cl)c(S(N)(=O)=O)c1
melting point: 229 °C

SMILES: O=S(=O)(Cl)c1cc(Br)c(Cl)s1
melting point: 63 to 65 °C

SMILES: CC(C)Cc1ccc(C(=O)C(C)Cl)cc1 (stereo unspecified)
melting point: 52 to 54 °C

SMILES: COC(=O)c1cc(I)cc(C(=O)OC)c1
melting point: 105 to 107 °C

SMILES: CCCCCCCC(=O)OC(=O)CCCCCCC
melting point: -1 °C

SMILES: Clc1nccnc1Cl
melting point: 22.5 to 24.5 °C

SMILES: CC(=O)OCC(=O)[C@@]1(O)CC[C@H]2[C@@H]3CCC4=CC(=O)C=C[C@]4(C)[C@H]3[C@@H](O)C[C@@]21C
melting point: 238 °C

SMILES: Cc1occc1C(=O)Nc1ccccc1
melting point: 110 °C

SMILES: O=C=Nc1ccc(Cl)c(C(F)(F)F)c1
melting point: 35 to 36 °C

SMILES: C[C@H]1C(=O)[C@H]2[C@@H](C[C@H]1C#N)C2(C)C
melting point: 54.5 °C

SMILES: O=Cc1cccn1-c1ccc(Cl)cc1
melting point: 92 to 96 °C

SMILES: CCCC(O)CCC=CC=CC#CC#CC=CCO (stereo unspecified)
melting point: 87 °C

SMILES: CCNC(=O)COC(=O)c1ccccc1
melting point: 106 °C

SMILES: c1ccc2c(c1)Cc1c-2ccc2ccccc12
melting point: 190 °C

SMILES: CCC(=O)OC(C)c1ccccc1 (stereo unspecified)
melting point: -60 °C

SMILES: CCC(Cl)CC
melting point: -105 °C

SMILES: CC(=O)C=CC1C(C)=CCCC1(C)C (stereo unspecified)
melting point: < 25 °C

SMILES: CN(C)C(=O)CCC(=O)O
melting point: 84.5 °C

SMILES: Cc1ccc(-c2csc(N)n2)cc1
melting point: 137 °C

SMILES: C=C(C)C(=O)OCC(C)C
melting point: -37 °C

SMILES: ClC(Cl)(Br)CBr
melting point: -26 °C

SMILES: NNC(=O)c1ccccc1
melting point: 115 °C

SMILES: CCOC(=O)c1oc(C(=O)OCC)c(O)c1O
melting point: 178 to 180 °C

SMILES: N#Cc1cc(/N=C/C=C/c2ccccc2)n(-c2c(Cl)cc(C(F)(F)F)cc2Cl)n1
melting point: 160 °C

SMILES: Fc1ccc(Oc2ccnc3cc(Cl)cc(Cl)c23)cc1
melting point: 107 °C

SMILES: Cc1cc2ccccc2c2ccc3ccccc3c12
melting point: 118 °C

SMILES: CC(C)(C)NCC(O)c1ccccc1Cl (stereo unspecified)
melting point: 89 °C

SMILES: C1OC2COCOC2C2OCOCC2O1 (stereo unspecified)
melting point: 232 to 233 °C

SMILES: CC(C)=NNC(N)=O
melting point: 182 °C

SMILES: CC1(C)CCC(=Cc2ccc(Cl)cc2)C1(O)Cn1cncn1 (stereo unspecified)
melting point: 140 °C

SMILES: CCCCC(C)CC (stereo unspecified)
melting point: -100 °C

SMILES: NC(=O)CC1(CC(=O)O)CCCCC1
melting point: 140 to 145 °C

SMILES: Brc1nc(Br)c(Br)c(Br)c1Br
melting point: 206 to 208 °C

SMILES: O=C1c2c(Br)c(Br)c(Br)c(Br)c2C(=O)N1CCN1C(=O)c2c(Br)c(Br)c(Br)c(Br)c2C1=O
melting point: 445 °C

SMILES: CCCN(CCCl)c1c([N+](=O)[O-])cc(C(F)(F)F)cc1[N+](=O)[O-]
melting point: 42 °C

SMILES: C[C@H](O)c1ccccc1Br
melting point: 56 to 58 °C

SMILES: CC(C)(C)OC(=O)N[C@]1(C(=O)O)C[C@@H]1c1ccccc1
melting point: 180 to 182 °C

SMILES: CC(=O)NC1C(O)CC(O)(C(=O)O)OC1C(O)C(O)CO (stereo unspecified)
melting point: 184 to 186 °C

SMILES: CCCOC(=O)C1=C(C)NC(=O)NC1c1ccccc1 (stereo unspecified)
melting point: 176 °C

SMILES: COc1ccc(C=CC#N)c(Cl)c1OC
melting point: 107 to 110 °C

SMILES: O=C(O)CCC(=O)c1ccc(Br)cc1
melting point: 146 to 147 °C

SMILES: COc1cc(CCN)cc(OC)c1OC
melting point: 35.5 °C

SMILES: CC1=CC(=O)CC(C)(C)C1=O
melting point: 26 to 28 °C

SMILES: CCCCCC(O)C=CC1C(O)CC(O)C1CC=CCCCC(=O)O (stereo unspecified)
melting point: 30 °C

SMILES: Nc1cc(Cl)nc(Cl)c1
melting point: 174 °C

SMILES: CC(=O)OC1OC(COC(=O)c2ccccc2)C(OC(=O)c2ccccc2)C1OC(=O)c1ccccc1 (stereo unspecified)
melting point: 128 to 130 °C

SMILES: O=C(NC(Cc1ccccc1)c1ccccc1)c1cccnc1 (stereo unspecified)
melting point: 159 °C

SMILES: CC(=O)C1(C)Cc2ccccc2C(=O)O1 (stereo unspecified)
melting point: 105 °C

SMILES: Cc1nc(C)c(Cl)c(O)c1Cl
melting point: 320 °C

SMILES: COc1cc(Cl)c(OC)cc1N
melting point: 120 °C

SMILES: Cn1ccc(C(=O)O)n1
melting point: 154 °C

SMILES: COCCOc1ccccc1S(=O)(=O)NC(=O)Nc1nc(OC)nc(OC)n1
melting point: 130 °C

More lines, now with the values ahead:

melting point: 56 °C
SMILES: N#CCCc1ccc(O)cc1

melting point: 90 to 94 °C
SMILES: O=C(O)C1CCCN(C(=O)OCc2ccccc2)C1 (stereo unspecified)

melting point: 182 to 184 °C
SMILES: Brc1ccccc1-c1nnn[nH]1

melting point: 125 to 126 °C
SMILES: Cc1cc(C)c(CC(=O)CSC#N)c(C)c1

melting point: 168 °C
SMILES: O=C(CO)[C@@H](O[C@H]1O[C@H](CO)[C@@H](O)[C@H](O)[C@H]1O)[C@H](O)[C@H](O)CO

melting point: 257 to 260 °C
SMILES: O=C(O)C1=NN(c2ccccc2)C(=O)C1=CC1C(=O)N(c2ccccc2)N=C1C(=O)O (stereo unspecified)

melting point: 138 to 139 °C
SMILES: O=c1c(Cl)c(Cl)cnn1Cc1ccc(Cl)cc1

melting point: 40.5 °C
SMILES: CCCCCCCCCCCCS(=O)(=O)Cl

melting point: 46 °C
SMILES: O=S(=O)(N(c1ccc(Cl)cn1)S(=O)(=O)C(F)(F)F)C(F)(F)F

melting point: 197 °C
SMILES: O=C(Oc1ccccc1)c1ccc(C(=O)Oc2ccccc2)cc1

melting point: 220 °C
SMILES: CC1C(=O)C23C4CC5C(C)(CO)CCCC56COC(CC1C2OC(C)(C)O4)C63 (stereo unspecified)

melting point: 73 to 75 °C
SMILES: CNCc1c(C)nc2ccccn12

melting point: 123 to 124 °C
SMILES: CC(C)(Oc1ccc2ccccc2c1)C(=O)O

melting point: 94 °C
SMILES: Cc1cccc(N(C)C(=S)Oc2ccc3c(c2)CCC3)c1

melting point: 79.2 °C
SMILES: CCOC(=O)Cn1c(=O)sc2cccc(Cl)c21

melting point: 87 to 91 °C
SMILES: CC(C)(C)C(=O)Nc1ncccc1C=O

melting point: 100 °C
SMILES: CC(C)c1cc(Cl)nc(N)n1

melting point: 65 °C
SMILES: Cc1cc2ccccc2cc1CCl

melting point: 105 to 108 °C
SMILES: NS(=O)(=O)c1ccc(Sc2cccs2)s1

melting point: 141 °C
SMILES: CNC(=NCCSCc1nc[nH]c1C)NC#N

melting point: 110 to 111 °C
SMILES: COC(=O)c1cc2cc(Br)ccc2s1

melting point: 219 °C
SMILES: CCOC(=O)c1c(C)cc(O)nc1O

melting point: 165 °C
SMILES: Nc1cc(N)c(C(=O)CI)cc1C(=O)CI

melting point: 100 to 101 °C
SMILES: COC(=O)c1cc(C=O)cn1C

melting point: 219 °C
SMILES: CC(C)(C)C1=CC(=NO)C=C(C(C)(C)C)C1=O

melting point: 194 °C
SMILES: CCOC(=O)NNC(=O)Nc1ccc(Cl)cc1

melting point: 61 °C
SMILES: C1CCCCCCCCCCCCCCC1

melting point: 74 °C
SMILES: Nc1ccc(Nc2ccccc2)cc1

melting point: 170 °C
SMILES: CS(=O)(=O)c1ccc2c(c1)N(CCCN1CCC(C(N)=O)CC1)c1ccccc1S2

melting point: -49.7 °C
SMILES: CC1CC(C)CC(C)C1 (stereo unspecified)

melting point: 174 °C
SMILES: O=C(O)c1ccc(OCC(F)(F)F)nc1

melting point: 185 to 188 °C
SMILES: Cc1n[nH]c(SCC(=O)c2ccc(Cl)cc2)n1

melting point: 221 to 226 °C
SMILES: CC(=O)c1ccc(O)c(C(N)=O)c1

melting point: 223 to 224 °C
SMILES: Cc1nn(-c2ccccc2)c2oc3ncccc3c(=O)c12

melting point: 181 to 182 °C
SMILES: Cc1c(O)ccc2c1OC(C)(C)CC2=O

melting point: 119 °C
SMILES: N#Cc1ccccc1OCC(O)CNCCNC(=O)Cc1ccc(O)cc1 (stereo unspecified)

melting point: 58 to 60 °C
SMILES: COc1cc(C=C(O)C(F)(F)C(F)(F)F)nc(OC)n1

melting point: 186 to 188 °C
SMILES: O=C(O)c1csc(-c2ccc(C(F)(F)F)cc2)n1

melting point: -32 °C
SMILES: CCCCOCCOCCOC(C)=O

melting point: 46 to 48 °C
SMILES: CC(C)(C)c1ccc(-c2noc(CCl)n2)cc1

melting point: 99 to 100 °C
SMILES: OC1CCN(c2nccc(C(F)(F)F)n2)CC1

melting point: 200 °C
SMILES: CN(C)c1ccc(/C=N/n2c(S)nnc2C(F)(F)F)cc1

melting point: 196 to 203 °C
SMILES: O=[N+]([O-])c1ccccc1SC1OC(CO)C(O)C(O)C1O (stereo unspecified)

melting point: 81 °C
SMILES: COC(=O)c1ccc([N+](=O)[O-])c(C)c1

melting point: 69 °C
SMILES: FC(F)(F)c1ccc2[nH]ccc2c1

melting point: 160 °C
SMILES: O=Cc1cc(O)cc(O)c1

melting point: 137 °C
SMILES: O=C1C=C(NCCCCc2ccccc2)C(=O)c2ccccc21

melting point: 136 °C
SMILES: CSc1nnc(S)s1

From a melting point compilation (Tetko et al.)
